Laboratory results: paper PMC9186491, “Novel Small Molecule Tyrosine Kinase 2 Pseudokinase Ligands Block Cytokine-Induced TYK2-Mediated Signaling Pathways” (Frontiers in Immunology, 2022)
Converted amounts (≈) assume the structure as drawn. Where two headings read alike, the source gives them in different places.

Experiments:
[1] = system: JAK2-dependent EPO-induced phosphorylation of STAT5 (Tyr694/699) in TF1 cells; test: JAK cellular selectivity assay, EPO-pSTAT5 (JAK2); type: cell-based, human; details: Homo sapiens, TF-1; TF1 cells; read-out: JAK Cellular Selectivity (IC50) EPO-pSTAT5 (JAK2)
Procedure: The cells were then ready for the assay after incubating for 2 hours in a humidified, 5% CO2 cell culture incubator at 37°C. […] The curve fit was generated, and statistical analysis was performed using GraphPad Prism. IC50 values were derived by non-linear regression analysis and defined as the compound concentration at which the response level was reduced to half of its maximum relative to a DMSO control.

[2] = LM T1/2, Mk; type: in vitro ADME; details: monkey, liver microsomes
[3] = PPB, D; type: in vitro ADME; details: dog, plasma
[4] = LogD; type: physicochemical
[5] = molecular target: T1, JAK3 JH1 kinase domain (Homo sapiens, UniProt P52333); test: KdELECT competition binding assay, JAK3 JH1; details: read-out: JAK Binding Selectivity (Kd) Catalytical Domain (JH1) JAK3
T1 construct: purchased Eurofins DiscoverX Corporation (contract assay)
Procedure: (§1) The KdELECT competition assays were performed to test the binding affinity of compounds to the JH1 kinase region or JH2 pseudokinase region in TYK2 or JAK by ligand competition with JH1 or JH2 protein segments. The assay was carried out at Eurofins DiscoverX Corporation following the established standard protocol (DiscoverX, San Diego, CA). In this assay, compounds that bind to the kinase or pseudokinase protein regions prevent the protein binding to the immobilized ligand and reduce the amount of kinase matter captured on the solid surface. […] Dissociation constants (Kds) for test compound-kinase interactions are calculated by measuring the amount of kinase captured on the solid support as a function of the test compound concentration. […] The ligated beads were blocked with excess biotin and washed with blocking buffer to remove unbound ligand and to reduce nonspecific binding. […] All reactions were performed in polypropylene 384-well plates with a final volume of 20 μL. […] The beads were then re-suspended in the elution buffer and incubated at room temperature with shaking for 30 minutes. The kinase concentration in the eluant was measured by qPCR. Two replicates were performed and averaged to obtain the Kd measurement.

[6] = system: IL23-induced TYK2/phosphoSTAT3 (Tyr705) in Kit225 T cells; test: Kit225 T cell assay for IL23-induced TYK2/phosphoSTAT3 activity; type: cell-based, human; details: Homo sapiens; Kit225 cells, 100 ng/mL IL23, AlphaLISA; read-out: IC50 IL23-induced-STAT3 Phosphorylation
Procedure: The cells were treated with serially diluted compounds for 1 hour and stimulated with 100 ng/mL human recombinant IL23 (R&D Systems) for 20 minutes. The treated cells were then lysed and cellular phosphorylated-STAT3 (Tyr705) levels were measured by AlphaLISA (PerkinElmer, Cat# ALSU-PST3) according to the manufacturer’s instructions.

[7] = LM T1/2, D; type: in vitro ADME; details: dog, liver microsomes
[8] = LM T1/2, M; type: in vitro ADME; details: mouse, liver microsomes
[9] = GSH; type: in vitro ADME
[10] = molecular target: T2, JAK2 JH1 kinase domain (Homo sapiens, UniProt O60674); test: KdELECT competition binding assay, JAK2 JH1; details: read-out: JAK Binding Selectivity (Kd) Catalytical Domain (JH1) JAK2
T2 construct: purchased Eurofins DiscoverX Corporation (contract assay)
Procedure: as §1

[11] = Solubility (PBS/Fas/Fes); type: physicochemical
[12] = molecular target: hERG (Homo sapiens, UniProt Q12809); test: hERG IC50
[13] = system: IFNα-induced CXCL10 production in human whole blood; test: IFNα-induced CXCL10 production in human whole blood; type: cell-based; details: human whole blood, IFNα 16 hours; read-out: TYK2-associated IFNα-induced-CXCL10 Production in Human Whole Blood: IC50
Procedure: Human whole blood [drawn with Ethylenediaminetetraacetic acid (EDTA) as anti-coagulant] was obtained from Zen-Bio Inc. (Durham, NC). […] The plasma was collected for detection of C-X-C motif chemokine 10 (CXCL10, IP10) secretion. CXCL10 was measured by Human CXCL10/IP-10 AlphaLISA Kit (PerkinElmer, #AL259 C/F) according to the manufacturer’s instructions.

[14] = FaSSIF, read-out: Solubility, Fas
[15] = FeSSIF (Fes [sic]), fessif, read-out: Solubility, Fes
[16] = PBS, aqueous buffer, read-out: Solubility, PBS

T2 sequence (O60674 849-1124 limits assumed): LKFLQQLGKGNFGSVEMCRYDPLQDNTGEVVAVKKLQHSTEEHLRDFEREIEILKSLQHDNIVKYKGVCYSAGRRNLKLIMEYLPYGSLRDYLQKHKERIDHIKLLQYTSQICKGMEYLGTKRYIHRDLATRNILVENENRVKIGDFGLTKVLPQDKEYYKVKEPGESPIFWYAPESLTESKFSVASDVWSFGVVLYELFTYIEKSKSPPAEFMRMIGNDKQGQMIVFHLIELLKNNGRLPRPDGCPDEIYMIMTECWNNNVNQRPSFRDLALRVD
T1 sequence (P52333 822-1111 limits assumed): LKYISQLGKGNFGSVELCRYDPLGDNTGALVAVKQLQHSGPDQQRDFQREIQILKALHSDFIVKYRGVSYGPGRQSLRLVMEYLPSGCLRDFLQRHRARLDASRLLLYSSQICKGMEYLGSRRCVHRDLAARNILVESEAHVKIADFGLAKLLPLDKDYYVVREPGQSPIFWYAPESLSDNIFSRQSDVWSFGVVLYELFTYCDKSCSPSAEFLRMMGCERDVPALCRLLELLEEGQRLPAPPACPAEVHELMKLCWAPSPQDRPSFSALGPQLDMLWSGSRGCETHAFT
Sequence of hERG (Q12809 whole entry): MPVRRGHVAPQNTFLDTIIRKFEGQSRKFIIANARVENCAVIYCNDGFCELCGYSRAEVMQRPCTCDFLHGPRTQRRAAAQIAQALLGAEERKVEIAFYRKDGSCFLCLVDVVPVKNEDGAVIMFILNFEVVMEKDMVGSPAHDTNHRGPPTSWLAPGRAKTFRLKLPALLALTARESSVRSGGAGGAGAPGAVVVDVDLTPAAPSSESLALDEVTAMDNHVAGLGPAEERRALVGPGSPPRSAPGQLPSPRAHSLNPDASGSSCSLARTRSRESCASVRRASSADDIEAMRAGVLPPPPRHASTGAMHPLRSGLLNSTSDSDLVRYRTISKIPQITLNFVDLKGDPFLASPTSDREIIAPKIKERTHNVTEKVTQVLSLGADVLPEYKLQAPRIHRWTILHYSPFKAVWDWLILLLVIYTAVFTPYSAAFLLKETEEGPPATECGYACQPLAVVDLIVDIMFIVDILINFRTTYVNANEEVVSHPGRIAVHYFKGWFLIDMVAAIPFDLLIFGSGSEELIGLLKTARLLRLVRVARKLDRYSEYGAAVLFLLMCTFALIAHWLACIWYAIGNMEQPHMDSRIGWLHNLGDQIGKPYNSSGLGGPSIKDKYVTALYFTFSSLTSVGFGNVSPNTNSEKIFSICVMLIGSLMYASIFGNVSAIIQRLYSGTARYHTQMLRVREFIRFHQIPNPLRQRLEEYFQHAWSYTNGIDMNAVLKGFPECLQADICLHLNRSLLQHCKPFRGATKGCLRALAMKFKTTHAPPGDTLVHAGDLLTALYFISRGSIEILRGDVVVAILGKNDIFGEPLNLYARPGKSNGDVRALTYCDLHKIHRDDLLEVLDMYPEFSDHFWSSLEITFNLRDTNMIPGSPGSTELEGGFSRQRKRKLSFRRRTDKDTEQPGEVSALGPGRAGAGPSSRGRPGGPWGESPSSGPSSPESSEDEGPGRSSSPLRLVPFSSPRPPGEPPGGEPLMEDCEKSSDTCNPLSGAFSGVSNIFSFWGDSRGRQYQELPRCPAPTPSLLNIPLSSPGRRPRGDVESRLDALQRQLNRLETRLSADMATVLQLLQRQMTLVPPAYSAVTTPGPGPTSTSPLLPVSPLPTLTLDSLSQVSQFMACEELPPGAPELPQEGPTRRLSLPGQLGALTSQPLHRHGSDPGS

SMILES | IC50 [1] [µM] | half-life [2] [min] | fraction unbound [3] | logD [4] | Kd [5] [µM] | IC50 [6] [nM] | half-life [7] [min] | half-life [8] [min] | GSH [9] | Kd [10] [µM] | solubility [11, 14] [µM] | solubility [11, 15] [µM] | solubility [11, 16] [µM] | IC50 [12] [µM] | IC50 [13] [nM]
CNC(=O)c1nnc(NC(=O)C2CC2)c2[nH]c(-c3ccc(N)cc3OC)cc12 [SHR2396] | > 10 | 50 | 0.0434 | 1.19 | > 20 | 5.9 | > 139 | 31 | negative | > 20 | 8.6 (≈ 3.27 µg/mL) | 8.2 (≈ 3.12 µg/mL) | 0.34 (≈ 0.129 µg/mL) |  | 
[2H]C([2H])([2H])NC(=O)c1nnc(NC(=O)N2CCC2)cc1Nc1cccc(-c2ncn(C)n2)c1OC [SHR9332] | > 10 | 30.9 | 0.325 | 0.48 | 4.5 | 79 | 46.5 | 49.8 | negative | 2 | 71.4 (≈ 31.5 µg/mL) | 108 (≈ 47.6 µg/mL) | 25.6 (≈ 11.3 µg/mL) | > 30 | 480
CNC(=O)c1nnc(NC(=O)N2CCC2)cc1Nc1cccc(-c2ncn(C)n2)c1OC [SHR8751] | > 10 | > 99 | 0.377 | 0.43 | 3.7 ± 0.07 | 27 | > 139 | > 139 | negative | 6.5 ± 1.7 | 60.7 (≈ 26.6 µg/mL) | 60.9 (≈ 26.6 µg/mL) | 17.6 (≈ 7.7 µg/mL) | > 30 | 460
